Active and inactive are the calls of the source. No cut-off for these calls is given here.
What was measured:
[1] = Drug level in Wistar rat brain at 3 mg/kg, ip measured after 30 mins by LC-MS/MS analysis; assay type: ADME, organism-based; settings: read-out: Drug uptake
Rattus norvegicus [2] = assay: Antipsychotic activity in Sprague-Dawley rat assessed as reduction in PCP-induced hyper-locomotion at 1 to 3 mg/kg, ip pretreated for 60 mins followed by PCP addition measured for 30 mins starting 15 min after rat reintroduction to auto-tracks; assay type: functional, organism-based
[3] = molecular target: 5-hydroxytryptamine receptor 6 (Homo sapiens, UniProt P50406); assay: biochemical
Description: Displacement of [3H]-LSD from human 5-HT6R expressed in HEK293 cell membranes after 1 hr at 37 degC by microbeta counting method

[4] = Toxicity in ip dosed Sprague-Dawley rat assessed as sedation pretreated for 60 mins followed by PCP addition measured for 30 mins starting 15 min after rat reintroduction to auto-tracks; assay type: organism-based; settings: in vivo
[5] = molecular target: T1, 5-hydroxytryptamine receptor 1A (Homo sapiens, UniProt P08908); assay: biochemical
T1 sequence (P08908 whole entry): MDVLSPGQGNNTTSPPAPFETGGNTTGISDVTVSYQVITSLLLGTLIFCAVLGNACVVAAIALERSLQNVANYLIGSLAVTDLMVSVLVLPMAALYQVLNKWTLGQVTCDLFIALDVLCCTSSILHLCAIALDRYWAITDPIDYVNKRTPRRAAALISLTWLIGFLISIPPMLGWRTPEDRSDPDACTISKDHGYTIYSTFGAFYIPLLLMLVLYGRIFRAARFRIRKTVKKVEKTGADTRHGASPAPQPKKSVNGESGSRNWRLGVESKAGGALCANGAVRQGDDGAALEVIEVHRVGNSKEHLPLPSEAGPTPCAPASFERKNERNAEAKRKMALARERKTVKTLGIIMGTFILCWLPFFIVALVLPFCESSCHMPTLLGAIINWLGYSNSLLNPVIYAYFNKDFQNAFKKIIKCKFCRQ
Description: Displacement of [3H]-8-OH-DPAT from human 5-HT1AR expressed in HEK293 cell membranes after 1 hr by microbeta counting method

[6] = Drug level in Wistar rat brain at 3 mg/kg, ip measured after 60 mins by LC-MS/MS analysis; assay type: ADME, organism-based; settings: read-out: Drug uptake
[7] = molecular target: 5-hydroxytryptamine receptor 7 (Homo sapiens, UniProt P34969); assay: biochemical
Description: Displacement of [3H]-5-CT from human 5-HT7R expressed in HEK293 cell membranes after 1 hr at 37 degC by microbeta counting method

[8] = Drug level in Wistar rat plasma at 3 mg/kg, ip measured after 30 mins by LC-MS/MS analysis; assay type: ADME, organism-based
[9] = molecular target: 5-hydroxytryptamine receptor 2A (Homo sapiens, UniProt P28223); assay: biochemical; assay type: cell-based, CHO-K1
[10] = Ratio of drug level in brain to plasma in Wistar rat at 3 mg/kg, ip measured after 30 mins by LC-MS/MS analysis; assay type: ADME, organism-based; settings: read-out: BPR
[11] = Ratio of drug level in brain to plasma in Wistar rat at 3 mg/kg, ip measured after 15 mins by LC-MS/MS analysis; assay type: ADME, organism-based; settings: read-out: BPR
[12] = Drug level in Wistar rat brain at 3 mg/kg, ip measured after 15 mins by LC-MS/MS analysis; assay type: ADME, organism-based; settings: read-out: Drug uptake
[13] = Drug level in Wistar rat plasma at 3 mg/kg, ip measured after 60 mins by LC-MS/MS analysis; assay type: ADME, organism-based
[14] = Ratio of drug level in brain to plasma in Wistar rat at 3 mg/kg, ip measured after 60 mins by LC-MS/MS analysis; assay type: ADME, organism-based; settings: read-out: BPR
[15] = Drug level in Wistar rat plasma at 3 mg/kg, ip measured after 15 mins by LC-MS/MS analysis; assay type: ADME, organism-based
[16] = molecular target: T2, Alpha-1A adrenergic receptor (Homo sapiens) (UniProt P35348); assay: Antagonist activity at human adrenergic alpha1A receptor expressed in CHO cells assessed as inhibition of epinephrine-induced calcium flux by fluorimetric method; assay type: functional, cell-based
T2 sequence (whole entry): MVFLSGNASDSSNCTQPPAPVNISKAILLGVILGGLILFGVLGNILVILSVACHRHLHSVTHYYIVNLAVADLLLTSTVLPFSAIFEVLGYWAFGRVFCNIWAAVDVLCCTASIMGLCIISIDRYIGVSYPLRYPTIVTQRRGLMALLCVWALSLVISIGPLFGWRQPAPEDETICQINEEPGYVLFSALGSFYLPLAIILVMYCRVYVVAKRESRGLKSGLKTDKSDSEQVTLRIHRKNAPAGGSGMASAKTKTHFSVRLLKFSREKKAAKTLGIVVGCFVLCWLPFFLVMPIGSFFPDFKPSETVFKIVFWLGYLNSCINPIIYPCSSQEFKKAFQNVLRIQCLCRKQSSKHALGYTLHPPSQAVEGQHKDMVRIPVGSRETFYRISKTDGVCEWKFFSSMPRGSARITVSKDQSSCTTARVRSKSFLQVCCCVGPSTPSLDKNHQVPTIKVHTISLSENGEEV

Rattus norvegicus [17] = organism: Rattus norvegicus; assay: animal or person; settings: Sprague-Dawley, ip, read-out: MED
Description: Antipsychotic activity in ip dosed Sprague-Dawley rat assessed as suppression of avoidance behavior by avoiding foot shock administered 60 mins prior to test by conditioned avoidance response test

[18] = Effect on failure incidence during conditioned avoidance response test in ip dosed Sprague-Dawley rat administered 60 mins prior to testing; assay type: ADME, organism-based; settings: in vivo
Rattus norvegicus [19] = organism: Rattus norvegicus; assay: animal or person; settings: Sprague-Dawley, ip, read-out: MED; remark: listed apart in the source
Description: Antipsychotic activity in ip dosed Sprague-Dawley rat assessed as reduction in PCP-induced hyper-locomotion pretreated for 60 mins followed by PCP addition measured for 30 mins starting 15 min after rat reintroduction to auto-tracks

Rattus norvegicus [20] = assay: Reversal of ketamine-induced working social withdrawal in Sprague-Dawley rat at 0.1 mg/kg, ip pretreated for 60 mins followed by ketamine administration; assay type: functional, organism-based
Rattus norvegicus [21] = assay: (§1) Toxicity in ip dosed Sprague-Dawley rat assessed as induction of catalepsy measured every 30 mins up to 240 mins by bar test; assay type: organism-based; settings: in vivo
[22] = as §1; assay type: organism-based; settings: Sprague-Dawley, in vivo
Rattus norvegicus [23] = assay: Reversal of PCP-induced cognitive impairment in Sprague-Dawley rat assessed as […] in time spent exploring novel object over familiar object at 0.05 mg/kg, ip pretreated for 60 mins followed by PCP addition by novel object recognition assay; assay type: functional, organism-based
Rattus norvegicus [24] = organism: Rattus norvegicus; assay: animal or person; settings: Sprague-Dawley, ip, read-out: MED; remark: listed apart in the source
Description: Reversal of ketamine-induced working social withdrawal in ip dosed Sprague-Dawley rat pretreated for 60 mins followed by ketamine administration

Rattus norvegicus [25] = assay: Effect on failure incidence during conditioned avoidance response test in Sprague-Dawley rat at 0.3 mg/kg, ip administered 60 mins prior to testing; assay type: ADME, organism-based; settings: in vivo, 1 h
[26] = molecular target: 5-hydroxytryptamine receptor 1B (Cricetulus griseus) (UniProt P46636); assay: Antagonist activity at 5-HT1BR in CHO cells assessed as inhibition of serotonin-induced response; assay type: functional, cell-based
Sequence of 5-hydroxytryptamine receptor 1B (Cricetulus griseus) (P46636 whole entry): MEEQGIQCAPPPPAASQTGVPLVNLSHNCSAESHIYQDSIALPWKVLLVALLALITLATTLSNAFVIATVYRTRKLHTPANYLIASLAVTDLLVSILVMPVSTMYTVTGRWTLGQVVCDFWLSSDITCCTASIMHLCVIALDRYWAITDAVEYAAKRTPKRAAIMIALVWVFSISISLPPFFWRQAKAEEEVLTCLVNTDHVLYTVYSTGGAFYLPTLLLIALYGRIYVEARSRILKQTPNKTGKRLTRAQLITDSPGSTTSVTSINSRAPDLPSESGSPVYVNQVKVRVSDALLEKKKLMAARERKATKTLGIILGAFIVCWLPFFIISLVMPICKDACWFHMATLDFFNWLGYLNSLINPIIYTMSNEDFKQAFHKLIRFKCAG

Sequence of 5-hydroxytryptamine receptor 6 (P50406 whole entry): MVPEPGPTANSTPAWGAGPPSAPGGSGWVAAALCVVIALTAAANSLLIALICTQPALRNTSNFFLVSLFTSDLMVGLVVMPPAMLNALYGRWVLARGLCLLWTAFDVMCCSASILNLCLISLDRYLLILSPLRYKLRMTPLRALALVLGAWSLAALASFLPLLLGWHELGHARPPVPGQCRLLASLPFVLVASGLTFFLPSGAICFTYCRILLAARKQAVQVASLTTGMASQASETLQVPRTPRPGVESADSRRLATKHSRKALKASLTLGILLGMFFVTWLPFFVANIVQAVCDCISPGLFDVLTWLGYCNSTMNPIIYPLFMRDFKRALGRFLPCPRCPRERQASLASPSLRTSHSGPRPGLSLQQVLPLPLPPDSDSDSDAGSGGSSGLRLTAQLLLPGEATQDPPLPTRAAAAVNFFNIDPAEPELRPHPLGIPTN
Sequence of 5-hydroxytryptamine receptor 2A (P28223 whole entry): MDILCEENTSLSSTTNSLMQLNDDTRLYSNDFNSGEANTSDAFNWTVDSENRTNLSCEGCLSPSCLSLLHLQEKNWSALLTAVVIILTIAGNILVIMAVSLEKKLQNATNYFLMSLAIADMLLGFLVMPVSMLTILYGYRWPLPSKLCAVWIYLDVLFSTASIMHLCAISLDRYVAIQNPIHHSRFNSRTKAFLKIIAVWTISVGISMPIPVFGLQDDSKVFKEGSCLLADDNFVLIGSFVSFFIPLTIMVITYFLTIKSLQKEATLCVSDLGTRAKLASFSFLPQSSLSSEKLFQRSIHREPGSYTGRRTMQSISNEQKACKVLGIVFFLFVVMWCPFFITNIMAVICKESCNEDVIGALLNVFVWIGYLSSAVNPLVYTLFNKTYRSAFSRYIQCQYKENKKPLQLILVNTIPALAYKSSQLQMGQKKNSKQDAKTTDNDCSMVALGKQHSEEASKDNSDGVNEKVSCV
Sequence of 5-hydroxytryptamine receptor 7 (P34969 whole entry): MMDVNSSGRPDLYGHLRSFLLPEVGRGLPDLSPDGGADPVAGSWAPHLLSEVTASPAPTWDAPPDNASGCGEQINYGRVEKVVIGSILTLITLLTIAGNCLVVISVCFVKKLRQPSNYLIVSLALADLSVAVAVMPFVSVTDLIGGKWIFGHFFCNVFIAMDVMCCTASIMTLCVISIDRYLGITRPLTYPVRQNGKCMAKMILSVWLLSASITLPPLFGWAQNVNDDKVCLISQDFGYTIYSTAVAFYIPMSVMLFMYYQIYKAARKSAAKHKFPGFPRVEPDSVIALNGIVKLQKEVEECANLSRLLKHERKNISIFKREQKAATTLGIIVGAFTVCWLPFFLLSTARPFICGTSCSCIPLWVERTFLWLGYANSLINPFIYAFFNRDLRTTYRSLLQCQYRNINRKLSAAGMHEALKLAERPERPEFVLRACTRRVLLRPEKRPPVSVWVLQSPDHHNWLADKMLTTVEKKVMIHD

concentration at 0.5 h [1] [nM] | Ki [3] [nM] | Ki [5] [nM] | concentration at 1 h [6] [nM] | Ki [7] [nM] | concentration at 0.5 h [8] [nM] | Ki [9] [nM] | Kp at 0.5 h [10] | Kp at 0.25 h [11] | concentration at 0.25 h [12] [nM] | concentration at 1 h [13] [nM] | Kp at 1 h [14] | concentration at 0.25 h [15] [nM] | SMILES | other results
81.9 | 40 | 16 | 35.5 | 1 | 389 | 15 | 0.21 | 0.28 | 114 | 79.2 | 0.45 | 450 | O=S(=O)(c1cccc2cnccc12)N1CCC[C@@H]1CCN1CCN(c2nsc3ccccc23)CC1 | 
 |  |  |  |  |  |  |  |  |  |  |  |  | COc1cccc(OC)c1OCCNCC1COc2ccccc2O1 (centres undefined) | Kb [16]: 0.24 nM
 |  |  |  |  |  |  |  |  |  |  |  |  | O=C(CCCN1CCC(O)(c2ccc(Cl)cc2)CC1)c1ccc(F)cc1 [HALOPERIDOL] | MTD at 0.5 h [4]: 0.06 mg/kg; minimal effective dose (Rattus norvegicus [17]): 0.1 mg/kg; MTD at 1 h [18]: 0.2 mg/kg; minimal effective dose (Rattus norvegicus [19]): 0.6 mg/kg; Activity (Rattus norvegicus [20]): inactive; Activity (Rattus norvegicus [21]): Dose-dependent effect; MTD [22]: 0.2 mg/kg; Activity (Rattus norvegicus [23]): inactive
67.1 | 360 | 37 | 19.7 | 12 | 417 | 18 | 0.19 | 0.15 | 90.1 | 117 | 0.17 | 647 | O=S(=O)(c1cccc2cnccc12)N1CCC[C@H]1CCN1CCN(c2nsc3ccccc23)CC1 | 
 |  |  |  |  |  |  |  |  |  |  |  |  | Cc1nc2n(c(=O)c1CCN1CCC(c3noc4cc(F)ccc34)CC1)CCCC2 [RISPERIDONE] | minimal effective dose (Rattus norvegicus [24]): 0.1 mg/kg; minimal effective dose (Rattus norvegicus [17]): 0.1 mg/kg; Activity (Rattus norvegicus [25]): Non-Toxic
 |  |  |  |  |  |  |  |  |  |  |  |  | COc1ccc(NC(=O)c2ccc(-c3ccc(-c4noc(C)n4)cc3C)cc2)cc1N1CCN(C)CC1 | Kb [26]: 0.065 nM

SMILES | concentration at 0.5 h [1] [nM] | Ki [3] [nM] | Ki [5] [nM] | concentration at 1 h [6] [nM] | Ki [7] [nM] | concentration at 0.5 h [8] [nM] | Ki [9] [nM] | Kp at 0.5 h [10] | Kp at 0.25 h [11] | concentration at 0.25 h [12] [nM] | concentration at 1 h [13] [nM] | Kp at 1 h [14] | concentration at 0.25 h [15] [nM] | other results
O=S(=O)(c1cncc2ccccc12)N1CCC[C@@H]1CCN1CCN(c2nsc3ccccc23)CC1 | 242 | 40 | 14 | 123 | 3 | 376 | 10 | 0.65 | 0.48 | 218 | 125 | 1 | 472 | Activity (Rattus norvegicus [2]): inactive; MTD at 0.5 h [4]: 2 mg/kg

From ChEMBL document CHEMBL4229332, “Novel multi-target azinesulfonamides of cyclic amine derivatives as potential antipsychotics with pro-social and pro-cognitive effects” (Eur J Med Chem, 2018)
